{
  "source": "patent US12558343B2",
  "about": "“Medical use of icaritin” (Lunan Pharmaceutical Group Corporation, priority 2020, dated 2026)",
  "key": {"[1]": {"system": "platelets (activation induced by adenosine diphosphate)", "experiment": "Platelet activation induced by adenosine diphosphate, flow cytometry (CD62p/CD61), blood of dosed rats", "assay_type": "in vivo, SD rats", "details": "for Activation rate of platelets activated by adenosine diphosphate, Basic value / Spontaneous activation rate: before administration; for Spontaneous activation rate: no adenosine diphosphate; for Activation-promoting rate: after vs basic value; for Activation rate of platelets activated by adenosine diphosphate, After administration: 20 min after last administration", "protocol": "0.5 mL of blood was collected from the orbit of the rat and 3.8% sodium citrate was added for anticoagulation (a ratio of blood to anticoagulant was 9:1) to prepare anticoagulated blood. 50 μL of anticoagulated blood was taken from each animal for determination of spontaneous platelet activation rate; and another 50 μL of anticoagulated blood was taken and 50 μL of adenosine diphosphate with a final concentration of 10 μmol was added for activation. 1.0-1.5 μL of each of CD62pPE/Cy7 and CD61PE was added to double-label the 2 anticoagulated blood, CD61 was used to label all the platelets and CD62p was used to label the activated platelets. […] The rats were double-labeled with G2a-PE/Cy7 and G-PE […] as a control. Each tube containing the treated blood was incubated at 4° C. in a dark place for 20 min; and 0.5 mL of 4% paraformaldehyde was added to fix for 10 min. 50 μL of the fixed blood sample was taken and diluted with 1 mL of a diluent, and the diluted sample was analyzed on a flow cytometer. Platelet populations were delineated in a CD61PE/Side Angle Light Scattering (SSC) two-parameter scatterplot, 5,000 platelets were counted, the number of CD61 and CD62p-positive cells was further counted in a CD61/CD62p scatterplot, and a percentage of a positive expression rate of CD62p in an expression rate of CD61 reflected a platelet activation rate (%).\nTwenty-four rats were taken and divided into 3 groups with 8 rats in each group. […] 1.0 mL of blood was collected from the orbits before administration and 20 min after a last administration, wherein 0.5 mL was used for a blood routine examination and 0.5 mL was used to prepare anticoagulated blood. The blood was treated and analyzed on the flow cytometer according to the detection method of platelet activation by flow cytometry. An activation rate of platelets activated by adenosine diphosphate (basic value) before administration and an activation rate of platelets activated by adenosine diphosphate after administration were compared. At the same time, 50 μL of anticoagulated blood was taken from the rats before administration, adenosine diphosphate was not added, and a spontaneous activation rate of the anticoagulated blood of animals was measured using the same method. The animals were fasted for 16-24 h before each blood sampling."}, "[2]": {"system": "hemorrhagic transformation model induced by clopidogrel combined with cerebral ischemia-reperfusion", "experiment": "Hemorrhagic transformation after cerebral ischemia-reperfusion (MCAO) caused by clopidogrel, bleeding rate", "assay_type": "in vivo, ICR mice", "details": "for Number of animals with cerebral hemorrhage: 24 h after MCAO; for Bleeding rate %: model group 80.0", "protocol": "5-week-old ICR male mice were fed to 6-week-old and divided into a control group, a model group, an icaritin-3 mg/kg group, an icaritin-6 mg/kg group, an icaritin-12 mg/kg group, and an icariin-12 mg/kg group according to body weight. From day 1 to day 3 after the grouping, the mice in each icaritin group were separately intragastrically administrated with 3, 6, and 12 mg/kg of icaritin and the mice in the icariin group was intragastrically administrated with 12 mg/kg of icariin once a day, and the mice in other groups were intragastrically administrated with a corresponding vehicle; and except the control group, the mice in other groups were intragastrically administrated with aspirin (100 mg/kg) or clopidogrel (15 mg/kg) once a day at a volume of 10 mL/kg.\nOn day 3, 10 min after the administration, the mice were anesthetized by intraperitoneal injection of 70 mg/kg of pentobarbital sodium and subjected to a cerebral ischemia-reperfusion (middle cerebral artery occlusion, MCAO) surgery with ischemia for 1 h and reperfusion for 23 h.\n24 h after the surgery was an end point of the experiment.\nBleeding rate: the mice were anesthetized by intraperitoneal injection of 70 mg/kg of pentobarbital sodium, a brain tissue was taken out, cerebral hemorrhage was recorded and a bleeding rate of the mice in each group was calculated. Cerebral hemorrhage rate %=number of animals with cerebral hemorrhage/number of surviving animals in each group×100."}, "[3]": {"system": "prolonged bleeding time caused by heparin sodium", "experiment": "Tail-cut bleeding time in mice, prolonged by heparin sodium", "assay_type": "in vivo, ICR mice", "details": "heparin sodium 150 U/kg i.v.", "description": "72 ICR mice aged 5-6 weeks, weighing 19-21 g, and half male and half female were selected. The mice were quarantined for 7 days after entering a laboratory and healthy mice were selected as test animals. The mice were weighed on first and last days of quarantine. According to the body weight on the last day of the quarantine, the male and female animals were divided into six groups by a simplified random method, namely, a normal group (C), a model group (V), low-, medium- and high-dose icaritin groups (2, 6, and 18 mg/kg, L, M, H) and a positive control drug group (200 mg/kg of etamsylate, P).\nAfter 15 min of the modeling, the tails of the mice were cut and bleeding time of each mouse was measured."}, "[4]": {"system": "gastrointestinal bleeding caused by aspirin", "experiment": "Gastrointestinal bleeding caused by aspirin in rats, gastric mucosal bleeding", "assay_type": "in vivo, SD rats", "details": "icaritin 18 mg/kg i.g. with aspirin 500 mg/kg i.g., 24 h", "protocol": "After 24 h of the intragastric administration, the rats were anesthetized, sacrificed, and dissected. Bleeding, erosion and ulcers of the gastric mucosa surface of the rats were observed."}, "[5]": {"details": "mouse, in vivo", "procedure": "(§1) After the grouping, the mice in the normal group and the model group were intragastrically administrated with 10 ml/kg of an icaritin solvent which was prepared by adding 12 g of hypromellose E5 and 0.1 g of sodium lauryl sulfate into 1 L of water. […] One hour after the last pre-administration, the mice in the model group and each administration group were injected with 150 U/kg of a heparin sodium injection through a tail vein to establish a model, and the mice in the normal group were injected with 10 ml/kg of a sodium chloride injection through a tail vein.\n(§2) After the bleeding time was detected, the mice were anesthetized with sodium pentobarbital, blood was collected from an abdominal cardinal vein, and indicators of blood routine examination and four coagulation indicators (prothrombin time, thromboplastin time, thrombin time, and fibrinogen) were detected."}, "[6]": {"details": "mouse, in vivo", "remark": "listed apart in the source", "procedure": "as §1, §2"}},
  "note": "Where two headings read alike, the source gives them in different places. Marks after values point to notes of the source that are not given here.",
  "data": [
    {"smiles": "COc1ccc(-c2oc3c(CC=C(C)C)c(O)cc(O)c3c(=O)c2O)cc1", "note": "[Icaritin]", "values": [
      {"measurement": "Activation rate of platelets activated by adenosine diphosphate, Basic value", "setting": "[1]; 3 mg/kg group", "result": "44.02 ± 11.21", "unit": "%"},
      {"measurement": "Spontaneous activation rate", "setting": "[1]; 3 mg/kg group", "result": "0.60 ± 0.11", "unit": "%"},
      {"measurement": "Activation-promoting rate", "setting": "[1]; 3 mg/kg i.g. 3 days", "result": 32.12, "unit": "%"},
      {"measurement": "Activation rate of platelets activated by adenosine diphosphate, After administration", "setting": "[1]; 3 mg/kg i.g. once a day 3 days", "result": "58.16 ± 13.41", "unit": "%"},
      {"measurement": "Activation rate of platelets activated by adenosine diphosphate, Basic value", "setting": "[1]; 6 mg/kg group", "result": "47.19 ± 13.12", "unit": "%"},
      {"measurement": "Spontaneous activation rate", "setting": "[1]; 6 mg/kg group", "result": "0.59 ± 0.20", "unit": "%"},
      {"measurement": "Activation-promoting rate", "setting": "[1]; 6 mg/kg i.g. 3 days", "result": 38.22, "unit": "%"},
      {"measurement": "Activation rate of platelets activated by adenosine diphosphate, After administration", "setting": "[1]; 6 mg/kg i.g. once a day 3 days", "result": "65.23 ± 16.78", "unit": "%"},
      {"measurement": "Activation rate of platelets activated by adenosine diphosphate, Basic value", "setting": "[1]; 18 mg/kg group", "result": "50.34 ± 19.22", "unit": "%"},
      {"measurement": "Spontaneous activation rate", "setting": "[1]; 18 mg/kg group", "result": "0.61 ± 0.14", "unit": "%"},
      {"measurement": "Activation-promoting rate", "setting": "[1]; 18 mg/kg i.g. 3 days", "result": 55.84, "unit": "%"},
      {"measurement": "Activation rate of platelets activated by adenosine diphosphate, After administration", "setting": "[1]; 18 mg/kg i.g. once a day 3 days", "result": "78.45 ± 20.22", "unit": "%"},
      {"measurement": "Number of animals with cerebral hemorrhage", "setting": "[2]; 3 mg/kg i.g. Day 1-3 with clopidogrel 15 mg/kg, of 7 animals", "result": 3},
      {"measurement": "Bleeding rate %", "setting": "[2]; 3 mg/kg i.g. Day 1-3 with clopidogrel 15 mg/kg", "result": 42.9, "unit": "%"},
      {"measurement": "Number of animals with cerebral hemorrhage", "setting": "[2]; 6 mg/kg i.g. Day 1-3 with clopidogrel 15 mg/kg, of 8 animals", "result": 2},
      {"measurement": "Bleeding rate %", "setting": "[2]; 6 mg/kg i.g. Day 1-3 with clopidogrel 15 mg/kg", "result": 25.0, "unit": "%"},
      {"measurement": "Number of animals with cerebral hemorrhage", "setting": "[2]; 12 mg/kg i.g. Day 1-3 with clopidogrel 15 mg/kg, of 8 (icaritin) or 7 (icariin) animals", "result": 2},
      {"measurement": "Bleeding rate %", "setting": "[2]; 12 mg/kg i.g. Day 1-3 with clopidogrel 15 mg/kg", "result": 25.0, "unit": "%"},
      {"measurement": "Bleeding time", "setting": "[3]; group H, 18 mg/kg i.g. once a day 5 days", "result": "15.9 ± 6.6^$ $ & min"},
      {"measurement": "Bleeding time", "setting": "[3]; group L, 2 mg/kg i.g. once a day 5 days, tail cut 15 min after modeling", "result": "26.4 ± 8.8^$ min"},
      {"measurement": "Bleeding time", "setting": "[3]; group M, 6 mg/kg i.g. once a day 5 days", "result": "22.7 ± 9.1^$ min"},
      {"measurement": "Bleeding rate", "setting": "[4]; model group 66.7", "result": "16.7^## %"},
      {"measurement": "Number of bleeding animals", "setting": "[4]; of 12 rats", "result": 2},
      {"measurement": "Number of erythrocytes", "setting": "[5]; 2 mg/kg", "result": "7.109 ± 0.656 10^12/L"},
      {"measurement": "Number of leukocytes", "setting": "[5]; 2 mg/kg", "result": "1.895 ± 0.207 10^9/L"},
      {"measurement": "Number of platelets", "setting": "[5]; 2 mg/kg", "result": "1046 ± 136 10^9/L"},
      {"measurement": "Number of erythrocytes", "setting": "[5]; 6 mg/kg", "result": "7.111 ± 0.634 10^12/L"},
      {"measurement": "Number of leukocytes", "setting": "[5]; 6 mg/kg", "result": "1.934 ± 0.199 10^9/L"},
      {"measurement": "Number of platelets", "setting": "[5]; 6 mg/kg", "result": "1110 ± 128 10^9/L"},
      {"measurement": "Number of erythrocytes", "setting": "[5]; 18 mg/kg", "result": "7.090 ± 0.761 10^12/L"},
      {"measurement": "Number of leukocytes", "setting": "[5]; 18 mg/kg", "result": "1.888 ± 0.223 10^9/L"},
      {"measurement": "Number of platelets", "setting": "[5]; 18 mg/kg", "result": "1059 ± 170 10^9/L"},
      {"measurement": "Fibrinogen", "setting": "[6]; 2 mg/kg", "result": "1.83 ± 0.22", "unit": "g/L"},
      {"measurement": "Prothrombin time", "setting": "[6]; 2 mg/kg", "result": "10.12 ± 1.34", "unit": "s"},
      {"measurement": "Thrombin time", "setting": "[6]; 2 mg/kg", "result": "22.23 ± 2.01", "unit": "s"},
      {"measurement": "Thromboplastin time", "setting": "[6]; 2 mg/kg", "result": "25.19 ± 1.90", "unit": "s"},
      {"measurement": "Fibrinogen", "setting": "[6]; 6 mg/kg", "result": "1.82 ± 0.56", "unit": "g/L"},
      {"measurement": "Prothrombin time", "setting": "[6]; 6 mg/kg", "result": "11.23 ± 1.45", "unit": "s"},
      {"measurement": "Thrombin time", "setting": "[6]; 6 mg/kg", "result": "24.09 ± 1.99", "unit": "s"},
      {"measurement": "Thromboplastin time", "setting": "[6]; 6 mg/kg", "result": "25.09 ± 2.22", "unit": "s"},
      {"measurement": "Fibrinogen", "setting": "[6]; 18 mg/kg", "result": "2.01 ± 0.52", "unit": "g/L"},
      {"measurement": "Prothrombin time", "setting": "[6]; 18 mg/kg", "result": "9.98 ± 1.23", "unit": "s"},
      {"measurement": "Thrombin time", "setting": "[6]; 18 mg/kg", "result": "25.54 ± 1.78", "unit": "s"},
      {"measurement": "Thromboplastin time", "setting": "[6]; 18 mg/kg", "result": "24.55 ± 2.66", "unit": "s"}
    ]}
  ]
}
